For this experiment, the system named is DUX4. As to the kind of experiment: DUX4 transcript levels in FSHD primary muscle cell cultures treated with PR-619. It counts as cell-based. Particulars: DUX4 expressing human primary FSHD myoblasts; 5 μM, 10 μM and 20 μM. The procedure: To further confirm the hypothesis that sumoylation is relevant for repression of DUX4, PR619 was used as inhibitor for the removal of SUMO substrates from their proteins. PR619 is a non-selective inhibitor of deubiquitinases and ubiquitin-like isopeptidases (like the family of SENP isopeptidases). […] DUX4 expressing human primary FSHD myoblasts were treated with 3 different concentrations of PR619 (5 μM, 10 μM and 20 μM) and cells were harvested for RNA isolation. […] Thus PR619 treatment of DUX4 expressing primary FSHD myotubes leads to DUX4 downregulation.
Human primary myoblast cell lines were originating from the University of Rochester bio repository (http://www.urmc.rochester.edu/fields-center/). Muscle samples were obtained after subjects were consented under a protocol approved by the institutional review board at the University of Rochester. […]
Myoblast and myotube samples were harvested for RNA isolation by adding QIAzol lysis reagent (#79306 Qiagen N.V., Venlo, The Netherlands). […] Gene specific cDNA products were quantified by qPCR in duplicate using SYBR green master mix supplemented with gene specific primers (table S2) using the CFX96 system (Bio-Rad, Veenendaal, The Netherlands). Data were analyzed by Bio-Rad CFX manager version 3.0 (Bio-Rad) using GAPDH and GUSB as reference genes.

Take `N#CSc1cc(SC#N)c(N)nc1N` [PR-619, 2,6-Diamino-3,5-dithiocyanopyridine]: the DUX4 transcript levels result is “decreased in cells treated with PR-619 in a dose dependent manner”.
